Our source for the Ki values is BindingDB's records for doi:10.1007/bf00168685 (Centre De Pharmacologie-Endocrinologie (Montpellier, France), 1992).

Each structure is given as a SMILES string. pKi: −log10 of the molar value.

In this assay the target is T1, 5-hydroxytryptamine receptor 3A (Rattus norvegicus, UniProt P35563).
T1 sequence (P35563 whole entry): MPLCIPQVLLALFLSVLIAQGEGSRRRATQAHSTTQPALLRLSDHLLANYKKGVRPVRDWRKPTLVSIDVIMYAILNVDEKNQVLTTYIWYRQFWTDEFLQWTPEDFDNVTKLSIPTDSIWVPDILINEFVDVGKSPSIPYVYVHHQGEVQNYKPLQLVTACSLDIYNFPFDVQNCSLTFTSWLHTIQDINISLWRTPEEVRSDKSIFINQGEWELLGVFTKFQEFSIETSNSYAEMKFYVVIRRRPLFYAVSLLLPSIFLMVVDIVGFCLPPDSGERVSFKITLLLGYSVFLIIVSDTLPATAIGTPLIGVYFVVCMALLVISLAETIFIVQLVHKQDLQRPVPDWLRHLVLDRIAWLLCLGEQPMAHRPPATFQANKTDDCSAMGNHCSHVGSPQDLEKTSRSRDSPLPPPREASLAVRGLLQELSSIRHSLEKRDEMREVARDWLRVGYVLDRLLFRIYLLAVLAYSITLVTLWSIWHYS

By pKi is commonly meant −log10 of the Ki, conventionally taken in molar units. Low values mean a large Ki, high ones a small Ki. The compound `CN1C2CCC1CC(OC(=O)c1c[nH]c3ccccc13)C2` (stereo unspecified) gave a negative-log Ki (pKi) of 8.55.
